This assay deals with P. omnivora. Briefly: in vitro fungal growth inhibition assay. It is filed as cell-based, Phymatotrichopsis omnivora.

“Also recorded” adds a separate entry of the source.

For `O=c1cc(-c2ccc(O)cc2)oc2cc(O)ccc12` [7,4-dihydroxyflavone], the “fungal growth inhibition in in vitro assays” value (at 0.1 mM) is on record as “inhibited fungal growth”. Further, the “inhibitory activity towards P. omnivora in in vitro assays” value (no concentration stated) is “very high inhibitory activity; also recorded: inhibitory to P. omnivora”.
